Literature values, collected in patent US20150190399A1, “NEW DIFFERENTIAL-RELEASE PHARMACEUTICAL COMPOSITION CONTAINING THREE ACTIVE PRINCIPLES” (LANDSTEINER SCIENTIFIC S.A. DE C.V., priority 2012, published 2015).

Details: in vivo

half-life: approximately 2 hours
Compound: CCCCc1nc(Cl)c(CO)n1Cc1ccc(-c2ccccc2-c2nn[nH]n2)cc1 [Losartan potassium, losartan potassium]
